Results taken from patent publication US7947647B2, “Synthetic mimics of mammalian cell surface receptors: method and compositions” (The Penn State Research Foundation, priority 2004, dated 2011).

Columns and labels:
[1] = system: Jurkat lymphocytes; assay: Antibody uptake assay and uptake kinetics (flow cytometry); format: cell-based, human; conditions: for efficiency as mediator of ligand (IgG) uptake: anti-DNP/PrA-AF488, flow cytometry
Procedure: Antibody uptake assays (FIG. 8, Panels A-B, FIG. 10, and FIG. 11). Synthetic receptors 2-9 in DMSO were diluted in RPMI media (0.5 mL, final DMSO concentration=1%) containing Jurkat lymphocytes (1×10^6). These receptor-treated cells were incubated at 37° C. for 1 h, washed with RPMI media (2×0.5 mL) to remove unincorporated receptors/DMSO, and resuspended in fresh media (89 μL). To these cells was added a pre-equilibrated complex (preincubated at 23° C. for 1 h) of anti-DNP IgG (9.6 μg) and the PrA-Alexa Fluor conjugate (PrA-AF488 or PrA-AF633, 3 μg) in phosphate-buffered saline (11 μL, pH 7.4, total volume=100 μL). Cells were typically maintained at 37° C. for 4 h to promote synthetic receptor-mediated endocytosis. Prior to analysis, treated cells were washed with media (0.5 mL), washed again with media containing 6-(2,4-dinitrophenyl)aminohexanoic acid (100 μM, 3×0.5 mL×20 min, 1% DMSO) to compete away any non-internalized protein, washed again with media (0.5 mL), and resuspended in media (0.6 mL) for analysis by epifluorescence microscopy, confocal microscopy, or flow cytometry.
Antibody uptake kinetics (FIG. 8, Panel C). To determine the relative uptake rates shown on the left of FIG. 8C, Jurkat lymphocytes were subjected to the antibody uptake assay (cells were treated with receptors 2-5 at 10 μM for 1 h followed by addition of a pre-equilibrated complex (preincubated at 23° C. for 1 h) of anti-DNP-IgG/PrA-AF488 for 15 min to 4 h) and internalized cellular fluorescence was quantified by flow cytometry. […] Observed rates of ligand uptake (kobs) were calculated with a Michaelis-Menten kinetic model assuming saturating concentrations of substrate (kobs=(Ft−F0)/t). t=time (in minutes), Ft=fluorescence at the specified time, and F0=fluorescence at time=0 min. The slope of plots of fluorescence vs. time provided kobs values that were divided by the basal rate of endocytosis (no receptor) to determine the relative rates of uptake.
These cells were washed with ice-cold media (500 μL) and maintained at 4° C. A pre-equilibrated (1 h at 23° C.) ice-cold solution of RPMI media (100 μL) containing anti-DNP-IgG (7.2 μg) and PrA-AF488 (2 μg) was added. After 1 h at 4° C., the cells were washed with ice-cold RPMI media (2×500 μL). Cells were equilibrated at 37° C. for 20 min prior to fluorescence measurements to dissociate excess surface-bound antibody. After equilibration, uptake experiments were initiated (this was defined as t=0 min). Cells were subsequently incubated at 37° C. for fixed periods of time (0 to 3 h), cooled to 4° C. on ice, and washed with ice-cold RPMI media containing 6-(2,4-dinitrophenyl)aminohexanoic acid (100 μM, 1% DMSO, 3×0.5 mL×10 min at 4° C. followed by 2×0.5 mL×20 min at 23° C.) to remove non-internalized IgG. Intracellular fluorescence was quantified by flow cytometry. Cell surface fluorescence was calculated by subtracting this intracellular fluorescence from cellular fluorescence measured at t=0 min (after the initial equilibration at 37° C. for 20 min; the competition with 6-(2,4-dinitrophenyl)aminohexanoic acid was omitted to analyze this cellular fluorescence).
Synthetic receptors were evaluated as mediators of cellular uptake of protein ligands in living Jurkat lymphocytes, a human T cell line. Confocal laser scanning microscopy and flow cytometry were employed to analyze cells treated with compounds 2-9 for 1 hour followed by addition of anti-DNP IgG complexed with fluorescent conjugates of the IgG-binding protein A (PrA) from S. aureus. […] (FIG. 9, Panel A). This intracellular red fluorescence was 59-fold lower in the absence of receptor 6 consistent with a synthetic receptor-mediated uptake mechanism. The IgG-loaded intracellular compartments were identified as late endosomes and lysosomes by co-localization studies in cells transfected with EGFP-lgp120, a fluorescent protein marker of these compartments.

[2] = system: Jurkat lymphocytes; assay: Cellular stability (cell surface half-life) of receptor; format: cell-based, human; conditions: 10 μM receptor 1 h, detected with anti-DNP/PrA-AF488
Procedure: Quantification of the cellular stability of receptor 2 (FIG. 9, Panel C). Jurkat lymphocytes (1×10^7) were incubated with receptor 2 in media (5 mL, 10 μM receptor, 1% DMSO) for 1 h at 37° C. in a 15 mL aerated centrifuge tube. Cells were washed with media (2×5 mL) to remove unincorporated receptor, resuspended in media (10 mL), transferred 2) to a tissue culture flask (25 cm^2), and maintained at 37° C. At fixed time points, an aliquot of this culture (1 mL) was removed from the flask and cells isolated by centrifugation. These cells were resuspended in media (89 μL) and a pre-equilibrated (23° C. for 1 h) complex of anti-DNP IgG (9.6 μg) and PrA488 (3 μg) in phosphate buffered saline (PBS, 11 μL, pH 7.4) was added for 5 min at 37° C. Treated cells were centrifuged (1300 g for 2 min), the supernatant was removed, cells were resuspended in media (0.5 mL), and cellular fluorescence was analyzed by flow cytometry. […]
To evaluate the temporal stability of receptor 2 on the cell surface, the half-life of this compound on Jurkat lymphocytes was quantified by addition of a soluble antibody. Cells were treated with this receptor for 1 hour (10 μM), unincorporated receptor was removed by washing cells with fresh media, and the abundance of 2 as a function of time was detected with a green fluorescent anti-DNP/PrA-AF488 complex.

[3] = biological target: rabbit polyclonal anti-DNP IgG; assay: Fluorescence polarization binding of DNP and NBD derivatives to anti-DNP IgG; conditions: apparent affinity, PBS pH 7.4, read-out: dissociation constants (Kd)
[4] = system: Jurkat lymphocytes; assay: Efflux kinetics from endosomes to plasma membrane by back exchange; format: cell-based, human
Procedure: FIG. 11. Quantification of efflux kinetics of receptor 10 from endosomes to the plasma membrane of Jurkat lymphocytes by back exchange. Cells treated with 10 (1 μM, 1 hour) were cooled to 4° C. and cell surface fluorophores removed (>90%) by repeated washing with ice-cold back exchange media containing BSA (1%) and methyl-β-cyclodextrin (2 mM). Cells were resuspended in back exchange media at 37° C. to resume recycling, cellular fluorescence was quantified by flow cytometry, and loss of fluorescence was evaluated with a one-site exponential decay model.
Quantification of efflux kinetics of receptor 10 from endosomes to the plasma membrane by back exchange (FIG. 11). The efficiency of removal of 10 from the plasma membrane was examined prior to analysis of efflux kinetics. Jurkat lymphocytes (3×10^6) were suspended in ice-cold serum free recycling media (1.5 mL) and maintained on ice (2 min) to block plasma membrane recycling. These cells were resuspended in ice-cold serum free recycling media (1.5 mL, 1% DMSO) containing 10 (1 μM) and maintained on ice (10 min) to allow association of 10 with the plasma membrane. Receptor-treated cells were washed with ice-cold serum free recycling media (2×0.5 mL), resuspended in ice-cold serum free recycling media (1.5 mL), and analyzed by flow cytometry.
These cells were washed with serum free recycling media (2×1 mL) to remove unincorporated receptor (10). These receptor-treated cells were cooled on ice (5 min) to halt recycling and washed with ice-cold back-exchange media (6×1.5 mL×10 min) to selectively remove 10 from the cell surface without affecting the population of 10 in intracellular endosomes. These cells were resuspended in warm back exchange media (37° C., 1.5 mL) to initiate plasma membrane recycling and immediately analyzed by flow cytometry (defined as t=0 min). Cells were isolated by centrifugation, resuspended in warm back exchange media (1.5 mL, 37° C.), incubated at 37° C., and analyzed by flow cytometry as a function of time.
To quantify the rate of plasma membrane recycling, oregon green-derived receptor 10 was employed. Unlike the more strongly cell-associated DNP and NBD-based receptors, the compound 10 binds proteins in cell culture media and can be rapidly and efficiently depleted from cell surfaces by washing cells with “back exchange” media containing bovine serum albumin (BSA, 1%) and methyl-beta-cyclodextrin (Me-beta-CD, 2 mM). This concentration of Me-beta-CD is known to affect neither endocytosis nor plasma membrane recycling. The oregon green-fluorophore of 10 was also chosen for these studies because unlike structurally similar carboxydifluorescein the fluorescence of oregon green is not appreciably quenched in acidic environment of endosomal compartments. […]

[5] = read-out: affinity for vancomycin (Kd); cited from earlier work
[6] = system: mouse J-774 cells and human HeLa cells; assay: Flow cytometric analysis of cellular uptake of fluorescent vancomycin 2; format: cell-based
Procedure: FIG. 18. Flow cytometric analysis of cellular uptake of fluorescent vancomycin 2 promoted by synthetic receptor 3 and control compounds. Preload conditions: Receptor 3 or analogues (4, 5) were added to cells for 1 h to load the plasma membrane, cells were washed, and 2 (3 μM) was added for 4 h. Premix conditions: Receptor 3 or analogues (4, 5) were preequilibrated with 2 (3 μM) at 23° C. for 1 h followed by addition of this mixture to cells for 4 h.
The dose-dependent effectiveness of delivery of 2 into mouse J-774 cells and human HeLa cells mediated by […] was examined quantitatively by flow cytometry.

[7] = 10 μM receptor for 1 hour, anti-DNP/PrA-AF488

CC(C)CCC[C@@H](C)[C@H]1CC[C@H]2[C@@H]3CC=C4C[C@@H](NCCCNC(=O)CCNC(=O)CCNC(=O)CCCCCNc5ccc([N+](=O)[O-])cc5[N+](=O)[O-])CC[C@]4(C)[C@H]3CC[C@]12C [receptor 2, N-(3-{[3-({3-[(3β)-cholest-5-en-3-ylamino]propyl}amino)-3-oxopropyl]amino}-3-oxopropyl)-6-[(2,4-dinitrophenyl)amino]hexanamide]
enhancement of cellular uptake of anti-DNP IgG in magnitude compared with basal levels of endocytosis [1, 7]: 208 fold | enhancement of cellular uptake of anti-DNP IgG in rate compared with basal levels of endocytosis [1, 7]: 391 fold | efficiency as mediator of ligand (IgG) uptake [1]: by far the most efficient | rate of uptake (k) ([1]; receptor at 1 μM, anti-DNP-IgG/PrA-AF488, 37° C.): 0.007327 ± 0.000006 min⁻¹ | ligand internalization half-life (t1/2) ([1]; receptor at 1 μM, calculated as (ln 2)/k): 1.58 h | cell surface half-life [2]: 20 h

6-(7-nitrobenzofuran-4-ylamino)hexanoic acid [compound 28, reference compound]
Kd [3]: 820 ± 144 nM

O=C(CCCCCNc1ccc([N+](=O)[O-])cc1[N+](=O)[O-])NCCCNC(=S)Nc1ccc(-c2c3ccc(=O)cc-3oc3cc(O)ccc23)c(C(=O)O)c1 [compound 27]
Kd [3]: 23 ± 1.5 nM

CC(C)CCC[C@@H](C)[C@H]1CC[C@H]2[C@@H]3CC=C4C[C@@H](NC(=O)CCNC(=O)CCCCCNc5ccc([N+](=O)[O-])cc5[N+](=O)[O-])CC[C@]4(C)[C@H]3CC[C@]12C [receptor 5, N-{3-[(3β)-cholest-5-en-3-ylamino]-3-oxopropyl}-6-[(2,4-dinitrophenyl)amino]hexanamide]
efficiency as mediator of ligand (IgG) uptake [1]: essentially abolished internalization of IgG | reduction of IgG delivery relative to receptor 4 (secondary amine converted to secondary amide) ([1]; at 10 μM): over 50 fold

CC(C)CCC[C@@H](C)[C@H]1CC[C@H]2[C@@H]3CC=C4C[C@@H](NCCCNC(=O)CCNC(=O)CCCCCNc5ccc([N+](=O)[O-])cc5[N+](=O)[O-])CC[C@]4(C)[C@H]3CC[C@]12C [receptor 3, N-[3-({3-[(3β)-cholest-5-en-3-ylamino]propyl}amino)-3-oxopropyl]-6-[(2,4-dinitrophenyl)amino]hexanamide]
efficiency as mediator of ligand (IgG) uptake [1]: dramatically diminished the effectiveness

CC(C)CCCC(C)[C@H]1CCC2C3CC=C4CC(NCCCNC(=O)CCNC(=O)c5ccc(-c6c7cc(F)c(=O)cc-7oc7cc(O)c(F)cc67)c(C(=O)O)c5)CC[C@]4(C)C3CC[C@@]21C (stereo partly shown) [receptor 10]
recycling half-life ([4]; 1 μM, back exchange media 37° C., one-phase exponential decay): 2.8 ± 0.8 min | removal of receptor from the cell surface ([4]; additional/repeated wash steps with back-exchange media): > 90% | loss of total cellular fluorescence ([4]; four total wash steps with back-exchange media, 1 μM): 84% | loss of total cellular fluorescence ([4]; single wash with ice-cold back-exchange media, 1 μM): 44%

CC(C)CCC[C@@H](C)[C@H]1CC[C@H]2[C@@H]3CC=C4C[C@@H](NCCCNC(=O)CCNC(=O)CCNC(=O)CCCCCNc5ccc([N+](=O)[O-])c6nonc56)CC[C@]4(C)[C@H]3CC[C@]12C [receptor 6, N-(3-{[3-({3-[(3β)-cholest-5-en-3-ylamino]propyl}amino)-3-oxopropyl]amino}-3-oxopropyl)-6-(7-nitrobenzofurazan-4-ylamino)hexanamide]
intracellular red fluorescence lower in the absence of receptor ([1]; 10 μM receptor, red fluorescent anti-DNP IgG/PrA): 59 fold

D-Phe-D-Ala [D-Phe-D-Ala dipeptide]
Kd [5]: ~7000 nM

CC(C)CCC[C@@H](C)[C@H]1CC[C@H]2[C@@H]3CC=C4C[C@@H](NCCCNC(=O)CCCCCNc5ccc([N+](=O)[O-])cc5[N+](=O)[O-])CC[C@]4(C)[C@H]3CC[C@]12C [receptor 4, N-{3-[(3β)-cholest-5-en-3-ylamino]propyl}-6-[(2,4-dinitrophenyl)amino]hexanamide]
efficiency as mediator of ligand (IgG) uptake [1]: dramatically diminished the effectiveness

AcNH-D-Phe-D-Ala-CO2H
effect of soluble competitor on receptor-mediated ligand uptake [6]: blocked
